Measurements from US5112804A, “Pharmaceutical composition and method of intranasal administration” (Temple University of the Commonwealth System of Higher …, priority 1989, dated 1992).

Tested on: blood glucose level
Assay: Insulin absorption animal study, continuous blood glucose monitoring after nasal administration
Type: in vivo, dog
Conditions: dogs
Description: The hypoglycemic effect of the above preparations was confirmed in animal glucose monitoring studies utilizing continuous glucose monitoring with the device described in J. Clin. Endocrinol. Metab. 53: 1145 (1984). The device consists of a system for nonthrombogenic blood withdrawal coupled to a system for blood glucose measurement. The blood withdrawal system includes a disposable sterile intravenous needle and catheter connected to a peristaltic pump. The inside wall of the catheter is coated with tridodecyclmethylammonium chloride complexed with heparin to provide a nonthrombogenic surface. Blood is continuously withdrawn at a rate of 12 ml/hr from the experimental animal via the nonthrombogenic catheter. The blood is diluted in a Plexiglass mixing chamber with six volumes of phosphate buffer solution (0.015 M; pH 7.4) containing 10 IU/ml heparin and then moved into the device's sensory chamber. […]
Six preconditioned female mongrel hound dogs treated for worms, weighing 19-20 kg, were fasted overnight and anesthetized in the morning with intravenous "NEMBUTAL" sodium pentobarbital (250 mg initial dose, 25 mg every 30 minutes for maintenance). […] Blood glucose level was continuously monitored. The resulting decrease in blood glucose level for the insulin dosages in Table 1 are recorded in FIGS. 1 to 12.

## CC1(C)[C@@H](O)CC[C@]2(C)[C@H]3C(=O)C=C4[C@@H]5C[C@@](C)(C(=O)O)CC[C@]5(C)CC[C@@]4(C)[C@]3(C)CC[C@@H]12 [glycyrrhetinic acid]
  enhancing absorption of insulin across the nasal membrane: effective
